# What was measured:
# Experiment in all cases: cell-based
# [1] = target: human ZIP14 (hZIP14) isoform 1, HA-tagged (Homo sapiens, UniProt Q15043, D443L)
# human ZIP8 (hZIP8) = human ZIP8 (hZIP8) (Homo sapiens, UniProt Q9C0K1)
# [2] = target: human ZIP14 (hZIP14) isoform 1, HA-tagged (Homo sapiens, UniProt Q15043)
# Chain of human ZIP14 (hZIP14) isoform 1, HA-tagged (Homo sapiens, UniProt Q15043) (Q15043 31-492): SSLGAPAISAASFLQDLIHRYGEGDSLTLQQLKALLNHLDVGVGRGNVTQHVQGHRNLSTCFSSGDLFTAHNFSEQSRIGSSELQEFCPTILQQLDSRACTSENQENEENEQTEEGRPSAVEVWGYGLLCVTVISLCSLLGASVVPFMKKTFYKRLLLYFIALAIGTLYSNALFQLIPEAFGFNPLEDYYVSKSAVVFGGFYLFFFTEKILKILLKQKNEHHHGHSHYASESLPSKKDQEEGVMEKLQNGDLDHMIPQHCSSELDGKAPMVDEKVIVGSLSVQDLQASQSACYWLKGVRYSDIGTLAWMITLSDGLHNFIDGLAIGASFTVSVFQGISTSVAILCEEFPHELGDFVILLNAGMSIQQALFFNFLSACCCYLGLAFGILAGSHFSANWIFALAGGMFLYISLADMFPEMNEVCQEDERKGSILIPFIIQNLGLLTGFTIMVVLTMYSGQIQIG
# Chain of human ZIP8 (hZIP8) (Q9C0K1 23-460): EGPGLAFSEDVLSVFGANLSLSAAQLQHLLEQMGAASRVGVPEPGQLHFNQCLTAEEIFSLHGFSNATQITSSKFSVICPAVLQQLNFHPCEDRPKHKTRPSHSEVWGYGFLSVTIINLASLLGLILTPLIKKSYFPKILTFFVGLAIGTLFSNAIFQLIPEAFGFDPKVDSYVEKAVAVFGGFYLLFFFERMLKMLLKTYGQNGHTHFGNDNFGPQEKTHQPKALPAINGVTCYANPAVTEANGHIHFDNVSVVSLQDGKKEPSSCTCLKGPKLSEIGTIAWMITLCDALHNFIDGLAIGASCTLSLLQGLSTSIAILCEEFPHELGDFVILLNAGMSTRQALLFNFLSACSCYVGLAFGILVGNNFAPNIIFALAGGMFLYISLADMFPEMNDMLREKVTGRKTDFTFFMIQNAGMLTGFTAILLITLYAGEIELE
# Chain of human ZIP14 (hZIP14) isoform 1, HA-tagged (Homo sapiens, UniProt Q15043, D443L) (Q15043 31-492 D443L): as the sequence (Q15043 31-492) above, with D413L counted along it
smiles,measurement,setting,value
"O=C1NCN(c2ccccc2)C12CCN(CCc1ccccc1)CC2 [PPTD, 1-phenyl-8-(2-phenylethyl)-1,3,8-triazaspiro[4.5]decan-4-one]",IC50,[1],19 µM
same,IC50,human ZIP8 (hZIP8),> 37 µM
same,IC50,[2],8.9 µM

# — article doi:10.1101/2025.10.23.682519v1 (biorxiv, 2025)
